The text below walks through data of US20170050980A1, “OXADIAZINE COMPOUNDS AND METHODS OF USE THEREOF” (FORUM Pharmaceuticals Inc., priority 2015, published 2017).

This test deals with Aβ42. Briefly: In vitro cell screening assay; quantification of Aβ (1-42) peptide by sandwich ELISA. Conditions: Human neuroglioma H4 cells stably expressing human wild type APP751; compounds 0.003-10 μM, incubated overnight (16-18 h); Aβ42 in supernatant by sandwich ELISA; normalized to DMSO and DAPT; read-out: Aβ42 H4 Prot Fre IC50. The format is cell-based. An outline of the steps:
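Stable H4 neuroglioma line expressing human wild-type APP751; compounds 0.003-10 μM (0.33% DMSO final) added in Pro293 medium 6 h after plating, incubated overnight (16-18 h) at 37 °C. Secreted Aβ42 measured in supernatant by C-terminal-capture sandwich ELISA with 4G8-HRP detection; IC50 by sigmoidal fit, normalized to DMSO and DAPT.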
Take `COc1nc(C2=NOC(C3CC3)C(c3ccc(Cl)cc3)N2)ccc1-n1cnc(C)c1` (stereo not drawn) [Example 20A, (−)-cis-5-(4-chlorophenyl)-6-cyclopropyl-3-[6-methoxy-5-(4-methyl-1H-imidazol-1-yl)pyridin-2-yl]-5,6-dihydro-4H-1,2,4-oxadiazine]: the IC50 (as a rule, the point on the concentration scale where inhibition reaches its midpoint) turned out to be 1780 nM.

In the case of `COc1nc(C2=NOC(C)C(c3cn(C)c4ncc(C(F)(F)F)cc34)N2)ccc1-n1cnc(C)c1` (single isomer, unassigned; (-)) [44A or 45A, (−)-3-(6-methoxy-5-(4-methyl-1H-imidazol-1-yl)pyridin-2-yl)-6-methyl-5-(1-methyl-5-(trifluoromethyl)-1H-pyrrolo[2,3-b]pyridin-3-yl)-5,6-dihydro-4H-1,2,4-oxadiazine], the concentration for half-maximal inhibition (IC50) is 173 nM.

Regarding `COc1nc(C2=NOCC(C)(c3cn(C)c4ccccc34)N2)ccc1-n1cnc(C)c1` (single isomer, unassigned; (-)) [Example 26B, (−)-3-[3-[6-methoxy-5-(4-methyl-1H-imidazol-1-yl)pyridin-2-yl]-5-methyl-5,6-dihydro-4H-1,2,4-oxadiazin-5-yl]-1-methyl-1H-indole], the IC50 was 310 nM.

With `COc1nc(C2=NOC(C)C(c3c4n(c5ccc(Cl)cc35)CCOC4)N2)ccc1-n1cnc(C)c1` (single isomer, unassigned; (+)) [Example 50A, (+)-8-chloro-10-(3-(6-methoxy-5-(4-methyl-1H-imidazol-1-yl)pyridin-2-yl)-6-methyl-5,6-dihydro-4H-1,2,4-oxadiazin-5-yl)-3,4-dihydro-1H-[1,4] oxazino [4,3-a] indole], the IC50 came to 3.2 nM.

Regarding `COc1nc(C2=NOC(C)C(c3cn(C)c4cc(F)c(Cl)cc34)N2)ccc1-n1cnc(C)c1` (single isomer, unassigned; (-)) [Example 21C, (−)-5-(5-chloro-6-fluoro-1-methyl-1H-indol-3-yl)-3-(6-methoxy-5-(4-methyl-1H-imidazol-1-yl)pyridin-2-yl)-6-methyl-5,6-dihydro-4H-1,2,4-oxadiazine], the IC50 was 370 nM.

`COc1nc(C2=NOC(C)C(c3ccc(Cl)c(C(F)F)c3)N2)ccc1-n1cnc(C)c1` (single isomer, unassigned; (-)) [Example 55B, (−)-5-(4-chloro-3-(difluoromethyl)phenyl)-3-(6-methoxy-5-(4-methyl-1H-imidazol-1-yl)pyridin-2-yl)-6-methyl-5,6-dihydro-4H-1,2,4-oxadiazine]: the IC50 was found to be 352 nM.

For the compound `COc1nc(C2=NOC(C)(C)C(c3ccc(Cl)cc3)N2)ccc1-n1cnc(C)c1` (single isomer, unassigned; (-)) [Example 23A, (−)-5-(4-chlorophenyl)-3-[6-methoxy-5-(4-methyl-1H-imidazol-1-yl)pyridin-2-yl]-6,6-dimethyl-5,6-dihydro-4H-1,2,4-oxadiazine], the IC50 was 1140 nM.

In the case of `COc1nc(C2=NO[C@H](c3ccc(Cl)cc3)[C@H](C)N2)ccc1-n1cnc(C)c1` [Example 71A, (5S,6R)-6-(4-chlorophenyl)-3-(6-methoxy-5-(4-methyl-1H-imidazol-1-yl)pyridin-2-yl)-5-methyl-5,6-dihydro-4H-1,2,4-oxadiazine], the IC50 stood at 12.7 nM.

Turning to `COc1nc(C2=NOCC3CN(c4ccc(Cl)cc4C(F)(F)F)CCN23)ccc1-n1cnc(C)c1` (single isomer, unassigned) [Example 36A, 8-(4-chloro-2-(trifluoromethyl)phenyl)-4-(6-methoxy-5-(4-methyl-1H-imidazol-1-yl)pyridin-2-yl)-1,6,7,8,9,9a-hexahydropyrazino [1,2-d] [1,2, 4] oxadiazine], the IC50 turned out to be 64 nM.

Turning to `COc1nc(C2=NOC(C)C(c3cn(C)c4ccc(F)c(F)c34)N2)ccc1-n1cnc(C)c1` (single isomer, unassigned; (-)) [Example 52D, (−)-5-(4,5-difluoro-1-methyl-1H-indol-3-yl)-3-(6-methoxy-5-(4-methyl-1H-imidazol-1-yl)pyridin-2-yl)-6-methyl-5,6-dihydro-4H-1,2,4-oxadiazine], the IC50 worked out at 401 nM.

As for `COc1nc(C2=NOC(C3CC3)C(c3cn(C)c4nccc(F)c34)N2)ccc1-n1cnc(C)c1` (single isomer, unassigned; (-)) [Example 63B, (−)-6-cyclopropyl-5-(4-fluoro-1-methyl-1H-pyrrolo [2,3-b]pyridin-3-yl)-3-(6-methoxy-5-(4-methyl-1H-imidazol-1-yl)pyridin-2-yl)-5,6-dihydro-4H-1,2,4-oxadiazine], the IC50 turned out to be 105 nM.

Take `COc1nc(C2=NOC(C)C(c3cn(C)c4cc(F)c(Cl)cc34)N2)ccc1-n1cnc(C)c1` (single isomer, unassigned; (+)) [Example 21D, (+)-5-(5-chloro-6-fluoro-1-methyl-1H-indol-3-yl)-3-(6-methoxy-5-(4-methyl-1H-imidazol-1-yl)pyridin-2-yl)-6-methyl-5,6-dihydro-4H-1,2,4-oxadiazine]: the IC50 was 2 nM.

On to `COc1nc(C2=NOC(C)C(c3cccc(Cl)c3)N2)ccc1-c1ccnc(C)c1` (single isomer, unassigned; (-)) [Example 49A, (−)-5-(3-chlorophenyl)-3-(2-methoxy-2′-methyl-[3,4′-bipyridin]-6-yl)-6-methyl-5,6-dihydro-4H-1,2,4-oxadiazine], for which the IC50 was found to be 548 nM.

On to `COc1nc(C2=NOC(C)C(c3ccc(Cl)cc3)N2)ccc1-c1ccnc(C)c1` (single isomer, unassigned; (-)) [Example 48A, (−)-5-(4-chlorophenyl)-3-(2-methoxy-2′-methyl-[3,4′-bipyridin]-6-yl)-6-methyl-5,6-dihydro-4H-1,2,4-oxadiazine], for which the IC50 is 438 nM.

As for `COc1nc(C2=NOC(C)C(c3c4n(c5ccc(Cl)cc35)CCOC4)N2)ccc1-n1cnc(C)c1` (single isomer, unassigned; (-)) [Example 50B, (−)-8-chloro-10-(3-(6-methoxy-5-(4-methyl-1H-imidazol-1-yl)pyridin-2-yl)-6-methyl-5,6-dihydro-4H-1,2,4-oxadiazin-5-yl)-3,4-dihydro-1H-[1,4] oxazino [4,3-a] indole], the IC50 came to 27 nM.

For the compound `COc1nc(C2=NOCC(c3c4n(c5ccc(Cl)cc35)CCOC4)N2)ccc1-n1cnc(C)c1` (single isomer, unassigned; (+)) [Example 28A, (+)-8-chloro-10-(3-(6-methoxy-5-(4-methyl-1H-imidazol-1-yl)pyridin-2-yl)-5,6-dihydro-4H-1,2,4-oxadiazin-5-yl)-3,4-dihydro-1H-[1,4]oxazino[4,3-a]indole], the IC50 turned out to be 5.3 nM.

As for `COc1nc(C2=NOC(C3CC3)C(c3cc(F)cc(F)c3)N2)ccc1-n1cnc(C)c1` (single isomer, unassigned; (-)) [Example 59B, (−)-6-cyclopropyl-5-(3,5-difluorophenyl)-3-(6-methoxy-5-(4-methyl-1H-imidazol-1-yl)pyridin-2-yl)-5,6-dihydro-4H-1,2,4-oxadiazine], the IC50 amounted to 854 nM.

With `COc1nc(C2=NOCC(c3cn(C)c4ccc(C5CCOCC5)cc34)N2)ccc1-n1cnc(C)c1` (single isomer, unassigned; (-)) [Example 29A, (−)-3-(6-methoxy-5-(4-methyl-1H-imidazol-1-yl)pyridin-2-yl)-5-(1-methyl-5-(tetrahydro-2H-pyran-4-yl)-1H-indol-3-yl)-5,6-dihydro-4H-1,2,4-oxadiazine], the IC50 is 663 nM.

Turning to `COc1nc(C2=NOC(C)C(c3cc4ccc(Cl)cc4o3)N2)ccc1-n1cnc(C)c1` (single isomer, unassigned) [Example 46D, 5-(6-chlorobenzofuran-2-yl)-3-(6-methoxy-5-(4-methyl-1H-imidazol-1-yl)pyridin-2-yl)-6-methyl-5,6-dihydro-4H-1,2,4-oxadiazine], the IC50 is 2.8 nM.

As to `COc1nc(C2=NOC(C)C(c3cn(C)c4ncc(Cl)c(F)c34)N2)ccc1-n1cnc(C)c1` (single isomer, unassigned; (-)) [Example 62B, (−)-5-(5-chloro-4-fluoro-1-methyl-1H-pyrrolo [2,3-b]pyridin-3-yl)-3-(6-methoxy-5-(4-methyl-1H-imidazol-1-yl)pyridin-2-yl)-6-methyl-5,6-dihydro-4H-1,2,4-oxadiazine], the IC50 was 484 nM.

Turning to `COc1nc(C2=NOC(C)C(c3cn(C)c4ncc(Cl)cc34)N2)ccc1-n1cnc(C)c1` (single isomer, unassigned; (-)) [Example 54A, (−)-5-(5-chloro-1-methyl-1H-pyrrolo [2,3-b]pyridin-3-yl)-3-(6-methoxy-5-(4-methyl-1H-imidazol-1-yl)pyridin-2-yl)-6-methyl-5,6-dihydro-4H-1,2,4-oxadiazine], the IC50 came to 190 nM.

In the case of `COc1nc(C2=NOC(C)C(c3cn(C)c4cc(F)c(F)cc34)N2)ccc1-n1cnc(C)c1` (single isomer, unassigned; (-)) [Example 39B, (−)-5-(5,6-difluoro-1-methyl-1H-indol-3-yl)-3-(6-methoxy-5-(4-methyl-1H-imidazol-1-yl)pyridin-2-yl)-6-methyl-5,6-dihydro-4H-1,2,4-oxadiazine], the IC50 turned out to be 70.4 nM.

With `COc1nc(C2=NOC(C)C(c3cn(C)c4ccc(F)c(F)c34)N2)ccc1-n1cnc(C)c1` (single isomer, unassigned; (+)) [Example 52B, (+)-5-(4,5-difluoro-1-methyl-1H-indol-3-yl)-3-(6-methoxy-5-(4-methyl-1H-imidazol-1-yl)pyridin-2-yl)-6-methyl-5,6-dihydro-4H-1,2,4-oxadiazine], the IC50 worked out at 2.9 nM.

On to `COc1nc(C2=NOC(C)C(c3nn(C)c4ccc(Cl)cc34)N2)ccc1-n1cnc(C)c1` (stereo not drawn) [Example 69B, (−)-(cis)-5-(5-chloro-1-methyl-1H-indazol-3-yl)-3-(6-methoxy-5-(4-methyl-1H-imidazol-1-yl)pyridin-2-yl)-6-methyl-5,6-dihydro-4H-1,2,4-oxadiazine], for which the IC50 was determined as 706 nM.
